Laboratory results published in ChEMBL document CHEMBL6121016, “Design, Synthesis, and Biological Evaluation of 1,3,4-Thiadiazole Derivatives as Novel Potent Peptide Deformylase Inhibitors for Combating Drug-Resistant Gram-Positive and -Negative Bacteria” (J Med Chem, 2025).
≈ marks a conversion by molar mass, not a printed value.

How the values were obtained:
Assay type in all cases: functional
Conditions in all cases: time 16-18 hrs
[1] = system: Staphylococcus aureus; assay: Antibacterial activity against methicillin-resistant Staphylococcus aureus ATCC 33591 after 16 to 18 hrs by broth microdilution method
[2] = system: Staphylococcus aureus; assay: Antibacterial activity against methicillin-resistant Staphylococcus aureus ATCC 43300 after 16 to 18 hrs by broth microdilution method
[3] = system: Staphylococcus aureus; assay: Antibacterial activity against methicillin-resistant Staphylococcus aureus Bio-090770 after 16 to 18 hrs by broth microdilution method
[4] = system: Staphylococcus aureus; assay: Antibacterial activity against methicillin-susceptible Staphylococcus aureus ATCC 29213 after 16 to 18 hrs by broth microdilution method
[5] = system: Staphylococcus aureus; assay: Antibacterial activity against methicillin-susceptible Staphylococcus aureus ATCC 25923 after 16 to 18 hrs by broth microdilution method
[6] = system: Staphylococcus aureus; assay: Antibacterial activity against methicillin-susceptible Staphylococcus aureus ATCC 13709 after 16 to 18 hrs by broth microdilution method
[7] = system: Staphylococcus epidermidis; assay: Antibacterial activity against Staphylococcus epidermidis after 16 to 18 hrs by broth microdilution method
[8] = system: Escherichia coli; assay: Antibacterial activity against Escherichia coli ATCC 25922 after 16 to 18 hrs by broth microdilution method
[9] = system: Klebsiella pneumoniae; assay: Antibacterial activity against Klebsiella pneumoniae CICC 21611 after 16 to 18 hrs by broth microdilution method
[10] = system: Acinetobacter baumannii; assay: Antibacterial activity against Acinetobacter baumannii Bio 34235 after 16 to 18 hrs by broth microdilution method
[11] = system: Acinetobacter baumannii; assay: Antibacterial activity against drug-resistant Acinetobacter baumannii Bio 53272 after 16 to 18 hrs by broth microdilution method

| Compound | MIC [1] [µg/mL] | MIC [2] [µg/mL] | MIC [3] [µg/mL] | MIC [4] [µg/mL] | MIC [5] [µg/mL] | MIC [6] [µg/mL] | MIC [7] [µg/mL] | MIC [8] [µg/mL] | MIC [9] [µg/mL] | MIC [10] [µg/mL] | MIC [11] [µg/mL] |
| --- | --- | --- | --- | --- | --- | --- | --- | --- | --- | --- | --- |
| CCCC[C@H](CN(O)C=O)C(=O)N1CCC[C@H]1c1nnc(-c2ccc(OC)cc2)s1 | 0.25 (≈ 0.578 µM) | 0.25 (≈ 0.578 µM) | 1 (≈ 2.31 µM) | 0.5 (≈ 1.16 µM) | 0.5 (≈ 1.16 µM) | 0.5 (≈ 1.16 µM) | 1 (≈ 2.31 µM) | > 16 | > 16 | 16 (≈ 37 µM) | > 8 |
| CCCC[C@H](CN(O)C=O)C(=O)N1CCC[C@H]1c1nnc(-c2cccc3ccccc23)s1 | 4 (≈ 8.84 µM) | 16 (≈ 35.4 µM) | 16 (≈ 35.4 µM) | 16 (≈ 35.4 µM) | 16 (≈ 35.4 µM) | 16 (≈ 35.4 µM) | 2 (≈ 4.42 µM) | > 16 | > 16 | > 16 | > 16 |
| CCCC[C@H](CN(O)C=O)C(=O)N1CCC[C@H]1c1nnc(-c2ncccc2F)s1 | 0.25 (≈ 0.593 µM) | 0.25 (≈ 0.593 µM) | 2 (≈ 4.74 µM) | 1 (≈ 2.37 µM) | 1 (≈ 2.37 µM) | 1 (≈ 2.37 µM) | 1 (≈ 2.37 µM) | > 16 | > 16 | 16 (≈ 38 µM) | 16 (≈ 38 µM) |
| CCCC[C@H](CN(O)C=O)C(=O)N1CCC[C@H]1c1nnc(-c2ccc3[nH]ccc3c2)s1 | 4 (≈ 9.06 µM) | 4 (≈ 9.06 µM) | 8 (≈ 18.1 µM) | 4 (≈ 9.06 µM) | 8 (≈ 18.1 µM) | 4 (≈ 9.06 µM) | 16 (≈ 36.2 µM) | > 16 | > 16 | > 16 | > 16 |
| CCCC[C@H](CN(O)C=O)C(=O)N1CCC[C@H]1c1nnc(-c2ccc(F)cc2C(F)(F)F)s1 | 0.5 (≈ 1.02 µM) | 2 (≈ 4.09 µM) | 4 (≈ 8.19 µM) | 2 (≈ 4.09 µM) | 2 (≈ 4.09 µM) | 2 (≈ 4.09 µM) | 4 (≈ 8.19 µM) | > 16 | > 16 | > 16 | > 16 |
| CCCC[C@H](CN(O)C=O)C(=O)N1CCC[C@H]1c1nnc(-c2ccnc(C(F)(F)F)c2)s1 | 0.25 (≈ 0.53 µM) | 0.25 (≈ 0.53 µM) | 1 (≈ 2.12 µM) | 0.5 (≈ 1.06 µM) | 0.5 (≈ 1.06 µM) | 0.5 (≈ 1.06 µM) | 1 (≈ 2.12 µM) | 128 (≈ 271 µM) | 64 (≈ 136 µM) | 64 (≈ 136 µM) | 16 (≈ 33.9 µM) |
| CCCC[C@H](CN(O)C=O)C(=O)N1CCC[C@H]1c1nnc(-c2ccc[nH]2)s1 | 0.25 (≈ 0.639 µM) | 0.5 (≈ 1.28 µM) | 4 (≈ 10.2 µM) | 1 (≈ 2.55 µM) | 1 (≈ 2.55 µM) | 1 (≈ 2.55 µM) | 0.5 (≈ 1.28 µM) | > 16 | > 16 | > 16 | > 16 |
| CCCC[C@H](CN(O)C=O)C(=O)N1CCC[C@H]1c1nnc(-c2c(F)cccc2[N+](=O)[O-])s1 | 1 (≈ 2.15 µM) | 2 (≈ 4.3 µM) | 2 (≈ 4.3 µM) | 2 (≈ 4.3 µM) | 2 (≈ 4.3 µM) | 2 (≈ 4.3 µM) | 4 (≈ 8.59 µM) | > 16 | > 16 | > 16 | > 16 |
| CCCC[C@H](CN(O)C=O)C(=O)N1CCC[C@H]1c1nnc(-c2cc(OC)c(OC)c(OC)c2)s1 | 0.25 (≈ 0.508 µM) | 0.5 (≈ 1.02 µM) | 1 (≈ 2.03 µM) | 4 (≈ 8.12 µM) | 1 (≈ 2.03 µM) | 0.5 (≈ 1.02 µM) | 2 (≈ 4.06 µM) | > 16 | > 16 | > 16 | > 16 |
| CCCC[C@H](CN(O)C=O)C(=O)N1CCC[C@H]1c1nnc(-c2sccc2F)s1 | 0.5 (≈ 1.17 µM) | 0.5 (≈ 1.17 µM) | 2 (≈ 4.69 µM) | 0.5 (≈ 1.17 µM) | 0.5 (≈ 1.17 µM) | 0.5 (≈ 1.17 µM) | 1 (≈ 2.34 µM) | 64 (≈ 150 µM) | 16 (≈ 37.5 µM) | 16 (≈ 37.5 µM) | 16 (≈ 37.5 µM) |
| CCCC[C@H](CN(O)C=O)C(=O)N1CCC[C@H]1c1nnc(-c2ccc(C(F)(F)F)cc2)s1 | 1 (≈ 2.13 µM) | 2 (≈ 4.25 µM) | 2 (≈ 4.25 µM) | 4 (≈ 8.5 µM) | 2 (≈ 4.25 µM) | 4 (≈ 8.5 µM) | 4 (≈ 8.5 µM) | > 16 | > 16 | > 16 | 16 (≈ 34 µM) |
| CCCC[C@H](CN(O)C=O)C(=O)N1CCC[C@H]1c1nnc(-c2ccncc2)s1 | 0.25 (≈ 0.62 µM) | 0.5 (≈ 1.24 µM) | 1 (≈ 2.48 µM) | 0.5 (≈ 1.24 µM) | 1 (≈ 2.48 µM) | 0.5 (≈ 1.24 µM) | 0.5 (≈ 1.24 µM) | 128 (≈ 317 µM) | 32 (≈ 79.3 µM) | 64 (≈ 159 µM) | 32 (≈ 79.3 µM) |
| CCCC[C@H](CN(O)C=O)C(=O)N1CCC[C@H]1c1nnc(-c2ccc(F)cc2[N+](=O)[O-])s1 | 1 (≈ 2.15 µM) | 2 (≈ 4.3 µM) | 4 (≈ 8.59 µM) | 2 (≈ 4.3 µM) | 4 (≈ 8.59 µM) | 2 (≈ 4.3 µM) | 4 (≈ 8.59 µM) | > 16 | > 16 | > 16 | > 16 |
| CCCC[C@H](CN(O)C=O)C(=O)N1CCC[C@H]1c1nnc(-c2ccccn2)s1 | 0.5 (≈ 1.24 µM) | 0.5 (≈ 1.24 µM) | 1 (≈ 2.48 µM) | 1 (≈ 2.48 µM) | 0.5 (≈ 1.24 µM) | 0.5 (≈ 1.24 µM) | 0.5 (≈ 1.24 µM) | 128 (≈ 317 µM) | 32 (≈ 79.3 µM) | 32 (≈ 79.3 µM) | 16 (≈ 39.7 µM) |
